Data on 25 molecules can be found in US10519177B2, “Heterocyclic compounds and uses thereof” (Plexxikon Inc., priority 2013, dated 2019).

The structures appear in SMILES notation. Where two headings read alike, the source gives them in different places. Bounds are passed on as bounds.

One assay has as its system MV-4-11 cells. Nature of the assay: Oncology cell growth assay MV-4-11 (CellTiter Glo). The assay is classed as cell-based. As to conditions: Homo sapiens, MV4-11, 72 h, read-out: Cell activity (IC50 μM) MV-4-11 3d-Growth. The method, boiled down:
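Growth read by CellTiter Glo luminescence after 72 h compound treatment of MLL-AF4-bearing MV-4-11 cells (3000/well). Titration: 8 points, 1:3 steps, maximum 10 μM, 0.2% DMSO final. Data normalized to DMSO wells, four-parameter fit gives pIC50.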

A further assay has as its system bromodomain. Nature of the assay: at least one of the bromodomain cell assays of Example 57. The class given is cell-based. The settings on record: at least one of the bromodomain cell assays described in Example 57; read-out: IC50 in at least one of the bromodomain cell assays.
A further assay concerns the target BRD4-BD12 (1-477) (Homo sapiens (Human), UniProt O60885). Nature of the assay: Alphascreen binding assay BRD4-BD12. The settings on record: BRD4(1 2) H4; read-out: Biochemical activity (IC50 μM) BRD4(1 2) H4. The method, boiled down:
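In this competition format, compounds displace a biotinylated tetra-acetyl H4 peptide from E. coli-expressed human BRD4 bromodomain constructs captured on nickel chelate beads. The reaction runs at pH 7.5 with 2 mM DTT and detergent for 1 h at room temperature before a 30 min bead step.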
(Alpha assays give light when donor and acceptor beads are brought close together.)

A word on the IC50: it is the concentration needed to halve the response being measured. For `Cc1noc(C)c1-c1cnc2c(I)cn(CC3CCC(F)(F)CC3)c2c1` [P-0250, 4-[1-[(4,4-difluorocyclohexyl)methyl]-3-iodo-pyrrolo[3,2-b]pyridin-6-yl]-3,5-dimethyl-isoxazole], the IC50 is less than 1 µM in the assay with MV-4-11 cells, less than 10 µM with bromodomain and less than 1 µM on BRD4-BD12 (1-477).

In the case of `Cc1noc(C)c1-c1cnc2c(I)cn(C(CC#N)C3CCCC3)c2c1` (stereo not shown) [P-0251, 3-cyclopentyl-3-[6-(3,5-dimethylisoxazol-4-yl)-3-iodo-pyrrolo[3,2-b]pyridin-1-yl]propanenitrile], the 50% inhibitory concentration (IC50) was less than 1 µM in the assay on MV-4-11 cells, less than 10 µM in the assay on bromodomain and less than 1 µM on BRD4-BD12 (1-477).

Take `Cc1noc(C)c1-c1cnc2c(-c3cnn(C(F)F)c3)cn(C(CC#N)C3CCCC3)c2c1` (stereo not shown) [P-0252, 3-cyclopentyl-3-[3-[1-(difluoromethyl)pyrazol-4-yl]-6-(3,5-dimethylisoxazol-4-yl)pyrrolo[3,2-b]pyridin-1-yl]propanenitrile]: the values for the IC50 in the assay with MV-4-11 cells, with bromodomain and on BRD4-BD12 (1-477) were less than 1 µM, less than 10 µM and less than 1 µM, respectively.

As for `Cc1noc(C)c1-c1cnc2c(-c3cnn(CC(F)(F)F)c3)cn(CC3CCC(F)(F)CC3)c2c1` [P-0253, 4-[1[(4,4-difluorocyclohexyl)methyl]-3-[1-(2,2,2-trifluoroethyl)pyrazol-4-yl]pyrrolo[3,2-b]pyridin-6-yl]-3,5-dimethyl-isoxazole], the IC50 was less than 1 µM in the assay with MV-4-11 cells, less than 10 µM in the assay on bromodomain and less than 1 µM on BRD4-BD12 (1-477).

Turning to `[2H]C([2H])(C1CC(F)(F)C1)n1cc(I)c2ncc(-c3c(C)noc3C)cc21` [P-0254, 4-[1-[dideuterio-(3,3-difluorocyclobutyl)methyl]-3-iodo-pyrrolo[3,2-b]pyridin-6-yl]-3,5-dimethyl-isoxazole], the IC50 was less than 1 µM in the assay with MV-4-11 cells, less than 10 µM with bromodomain and less than 1 µM on BRD4-BD12 (1-477).

Take `[2H]C([2H])(C1CC(F)(F)C1)n1cc(-c2cn[nH]c2)c2ncc(-c3c(C)noc3C)cc21` [P-0255, 4-[1-[dideuterio-(3,3-difluorocyclobutyl)methyl]-3-(1H-pyrazol-4-yl)pyrrolo[3,2-b]pyridin-6-yl]-3,5-dimethyl-isoxazole]: the results for the IC50 in the assay on MV-4-11 cells, in the assay on bromodomain and on BRD4-BD12 (1-477) were less than 1 µM, less than 10 µM and less than 1 µM, respectively.

`[2H]C([2H])(C1CC(F)(F)C1)n1cc(-c2cnn(C(F)F)c2)c2ncc(-c3c(C)noc3C)cc21` [P-0256, 4-[1-[dideuterio-(3,3-difluorocyclobutyl)methyl]-3-[1-(difluoromethyl)pyrazol-4-yl]pyrrolo[3,2-b]pyridin-6-yl]-3,5-dimethyl-isoxazole]: the half-inhibitory concentration (IC50) with MV-4-11 cells is less than 1 µM; in the assay on bromodomain, less than 10 µM; at BRD4-BD12 (1-477), less than 1 µM.

In the case of `[2H]C([2H])(C1CC(F)(F)C1)n1cc(-c2cnn(CCF)c2)c2ncc(-c3c(C)noc3C)cc21` [P-0258, 4-[1-[dideuterio-(3,3-difluorocyclobutyl)methyl]-3-[1-(2-fluoroethyl)pyrazol-4-yl]pyrrolo[3,2-b]pyridin-6-yl]-3,5-dimethyl-isoxazole], the results for the IC50 in the assay with MV-4-11 cells, with bromodomain and on BRD4-BD12 (1-477) were less than 1 µM, less than 10 µM and less than 1 µM, respectively.

In the case of `[2H]C([2H])(C1CC(F)(F)C1)n1cc(-c2cnc(C3CC3)nc2)c2ncc(-c3c(C)noc3C)cc21` [P-0259, 4-[3-(2-cyclopropylpyrimidin-5-yl)-1-[dideuterio-(3,3-difluorocyclobutyl)methyl]pyrrolo[3,2-b]pyridin-6-yl]-3,5-dimethyl-isoxazole], the results for the IC50 in the assay with MV-4-11 cells, with bromodomain and at BRD4-BD12 (1-477) were less than 1 µM, less than 10 µM and less than 1 µM, respectively.

As to `Cc1noc(C)c1-c1cnc2c(-c3cnn(CCF)c3)cn(CC3(F)CCCCC3)c2c1` [P-0260, 4-[1-[(1-fluorocyclohexyl)methyl]-3-[1-(2-fluoroethyl)pyrazol-4-yl]pyrrolo[3,2-b]pyridin-6-yl]-3,5-dimethyl-isoxazole], the half-inhibitory concentration (IC50) was less than 1 µM in the assay on MV-4-11 cells, less than 10 µM in the assay with bromodomain and less than 1 µM at BRD4-BD12 (1-477).

As to `Cc1noc(C)c1-c1cnc2c(-c3cnn(C(F)F)c3)cn(CC3(F)CCC(O)CC3)c2c1` (stereo not shown) [P-0261, 4-[[3-[1-(difluoromethyl)pyrazol-4-yl]-6-(3,5-dimethylisoxazol-4-yl)pyrrolo[3,2-b]pyridin-1-yl]methyl]-4-fluoro-cyclohexanol], the IC50 with MV-4-11 cells is less than 1 µM; in the assay with bromodomain, less than 10 µM; at BRD4-BD12 (1-477), less than 1 µM.

Consider `Cc1noc(C)c1-c1cnc2c(Br)c[nH]c2c1` [P-0263, 4-(3-bromo-1H-pyrrolo[3,2-b]pyridin-6-yl)-3,5-dimethyl-isoxazole], for which the IC50 with bromodomain is less than 10 µM; on BRD4-BD12 (1-477), less than 1 µM.

For `Cc1cc(-c2cnc3ccn(CC4CCC(F)(F)CC4)c3c2)cnn1` [P-0286], the IC50 is 10 to 200 µM in the assay with MV-4-11 cells, less than 10 µM in the assay with bromodomain and less than 1 µM on BRD4-BD12 (1-477).

Regarding `[2H]C([2H])(C1CCC(F)(F)CC1)n1cc(-c2cnco2)c2ncc(-c3c(C)noc3C)cc21` [P-0334, 4-[1-[dideuterio-(4,4-difluorocyclohexyl)methyl]-3-oxazol-5-yl-pyrrolo[3,2-b]pyridin-6-yl]-3,5-dimethyl-isoxazole], the IC50 with MV-4-11 cells was less than 1 µM; in the assay on bromodomain, less than 10 µM; at BRD4-BD12 (1-477) it was less than 1 µM.

For `[2H]C([2H])(C1CCC(F)(F)CC1)n1cc(-c2cn(C)nc2C)c2ncc(-c3c(C)noc3C)cc21` [P-0335, 4-[1-[dideuterio-(4,4-difluorocyclohexyl)methyl]-3-(1,3-dimethylpyrazol-4-yl)pyrrolo[3,2-b]pyridin-6-yl]-3,5-dimethyl-isoxazole], the IC50 is less than 1 µM with MV-4-11 cells, less than 10 µM in the assay on bromodomain and less than 1 µM at BRD4-BD12 (1-477).

Regarding `[2H]C([2H])(C1CCC(F)(F)CC1)n1cc(-c2cnn(CC)c2)c2ncc(-c3c(C)noc3C)cc21` [P-0336, 4-[1-[dideuterio-(4,4-difluorocyclohexyl)methyl]-3-(1-ethylpyrazol-4-yl)pyrrolo[3,2-b]pyridin-6-yl]-3,5-dimethyl-isoxazole], the IC50 in the assay on MV-4-11 cells is less than 1 µM; in the assay on bromodomain, less than 10 µM; at BRD4-BD12 (1-477) it was less than 1 µM.

Consider `[2H]C([2H])(C1CCC(F)(F)CC1)n1cc(-c2cn(C)nc2C(F)(F)F)c2ncc(-c3c(C)noc3C)cc21` [P-0337, 4-[1-[dideuterio-(4,4-difluorocyclohexyl)methyl]-3-[1-methyl-3-(trifluoromethyl)pyrazol-4-yl]pyrrolo[3,2-b]pyridin-6-yl]-3,5-dimethyl-isoxazole], for which the IC50 in the assay on MV-4-11 cells is less than 1 µM; with bromodomain it was less than 10 µM; at BRD4-BD12 (1-477), less than 1 µM.

As to `[2H]C([2H])(C1CCC(F)(F)CC1)n1cc(-c2cnn(C)c2C)c2ncc(-c3c(C)noc3C)cc21` [P-0338, 4-[1-[dideuterio-(4,4-difluorocyclohexyl)methyl]-3-(1,5-dimethylpyrazol-4-yl)pyrrolo[3,2-b]pyridin-6-yl]-3,5-dimethyl-isoxazole], the IC50 was less than 1 µM in the assay on MV-4-11 cells, less than 10 µM with bromodomain and less than 1 µM at BRD4-BD12 (1-477).

For the molecule `Cc1noc(C)c1-c1ccc2c(-c3ccc(C(=O)O)cc3F)cn(C(c3ccccc3)c3ccccn3)c2c1` (stereo not shown) [P-1044, 4-[6-(3,5-dimethylisoxazol-4-yl)-1-[phenyl(2-pyridyl)methyl]indol-3-yl]-3-fluoro-benzoic acid], the IC50 is less than 1 µM in the assay on MV-4-11 cells (MV-4-11, 3d growth) and less than 1 µM on BRD4-BD12 (1-477).

Turning to `Cc1cc(-c2cn(C(c3ccccc3)c3ccccn3)c3cc(-c4c(C)noc4C)ccc23)ccc1C(=O)O` (stereo not shown) [P-1045, 4-[6-(3,5-dimethylisoxazol-4-yl)-1-[phenyl(2-pyridyl)methyl]indol-3-yl]-2-methyl-benzoic acid], the IC50 is less than 1 µM in the assay with MV-4-11 cells (MV-4-11, 3d growth) and less than 1 µM at BRD4-BD12 (1-477).

As to `Cc1noc(C)c1-c1ccc2c(-c3cnn(CC(F)(F)F)c3)cn(C(c3ccccc3)c3ccccn3)c2c1` (stereo not shown) [P-1046, 3,5-dimethyl-4-[1-[phenyl(2-pyridyl)methyl]-3-[1-(2,2,2-trifluoroethyl)pyrazol-4-yl]indol-6-yl]isoxazole], the IC50 with MV-4-11 cells (MV-4-11, 3d growth) is less than 1 µM; on BRD4-BD12 (1-477), less than 1 µM.

On to `Cc1noc(C)c1-c1ccc2c(-c3ccc(C(=O)O)c(Cl)c3)cn(C(c3ccccc3)c3ccccn3)c2c1` (stereo not shown) [P-1047, 2-chloro-4-[6-(3,5-dimethylisoxazol-4-yl)-1-[phenyl(2-pyridyl)methyl]indol-3-yl]benzoic acid], for which the IC50 in the assay with MV-4-11 cells (MV-4-11, 3d growth) was less than 1 µM; on BRD4-BD12 (1-477), less than 1 µM.

Take `COc1cc(-c2cn(C(c3ccccn3)C3CCCC3)c3cc(-c4c(C)noc4C)cnc23)ccc1C(=O)O` (stereo not shown) [P-1048, 4-[1-[cyclopentyl(2-pyridyl)methyl]-6-(3,5-dimethylisoxazol-4-yl)pyrrolo[3,2-b]pyridin-3-yl]-2-methoxy-benzoic acid]: the IC50 in the assay with MV-4-11 cells (MV-4-11, 3d growth) was less than 1 µM; at BRD4-BD12 (1-477) it was less than 1 µM.

With `Cc1noc(C)c1-c1cnc2c(-c3ccc(C4(C(=O)O)CC4)cc3)cn(C(c3ccccn3)C3CCCC3)c2c1` (stereo not shown) [P-1049, 1-[4-[1-[cyclopentyl(2-pyridyl)methyl]-6-(3,5-dimethylisoxazol-4-yl)pyrrolo[3,2-b]pyridin-3-yl]phenyl]cyclopropanecarboxylic acid], the IC50 in the assay on MV-4-11 cells (MV-4-11, 3d growth) is less than 1 µM; at BRD4-BD12 (1-477), less than 1 µM.

`Cc1noc(C)c1-c1ccc2c(-c3cccc(CC(=O)O)c3)cn(C(c3ccccc3)c3ccccn3)c2c1` (stereo not shown) [P-1050, 2-[3-[6-(3,5-dimethylisoxazol-4-yl)-1-[phenyl(2-pyridyl)methyl]indol-3-yl]phenyl]acetic acid]: the IC50 was less than 1 µM in the assay with MV-4-11 cells (MV-4-11, 3d growth) and less than 1 µM on BRD4-BD12 (1-477).
